Laboratory results: ChEMBL document CHEMBL5050844 (2019)

Assays:
[1] = Induction of anti-CD3 antibodies-stimulated human T cell activation at 1 uM assessed fold increase in IL-2 secretion measured by ELISA assay; type: functional, T cell line; also: reference of the scale not given here
[2] = Induction of anti-CD3 antibodies-stimulated human T cell activation at 8 uM assessed fold increase in IL-2 secretion measured by ELISA assay; type: functional, T cell line; also: reference of the scale not given here
[3] = Induction of anti-CD3/CD28 antibodies-stimulated human T cell activation at 0.3 uM assessed fold increase in CD25 expression measured by ELISA assay; type: functional, T cell line
[4] = Induction of anti-CD3/CD28 antibodies-stimulated human T cell activation at 0.3 uM assessed fold increase in IL-2 secretion measured by ELISA assay; type: functional, T cell line
[5] = Induction of anti-CD3 antibodies-stimulated human T cell activation at 8 uM assessed fold increase in CD25 expression measured by ELISA assay; type: functional, T cell line; also: reference of the scale not given here
[6] = biological target: E3 ubiquitin-protein ligase CBL-B (Homo sapiens, UniProt Q13191); test: Inhibition of N-terminal Avi-tagged human CBL-B (36 to 427 residues) incubated with 60 nM Src kinase for 1.5 hrs followed by incubation with fluorescently labeled UbcH5B-Ub for 1 hr and measured by TR-FRET assay; type: single protein
Sequence of E3 ubiquitin-protein ligase CBL-B (Q13191 whole entry, the tested form may be a part): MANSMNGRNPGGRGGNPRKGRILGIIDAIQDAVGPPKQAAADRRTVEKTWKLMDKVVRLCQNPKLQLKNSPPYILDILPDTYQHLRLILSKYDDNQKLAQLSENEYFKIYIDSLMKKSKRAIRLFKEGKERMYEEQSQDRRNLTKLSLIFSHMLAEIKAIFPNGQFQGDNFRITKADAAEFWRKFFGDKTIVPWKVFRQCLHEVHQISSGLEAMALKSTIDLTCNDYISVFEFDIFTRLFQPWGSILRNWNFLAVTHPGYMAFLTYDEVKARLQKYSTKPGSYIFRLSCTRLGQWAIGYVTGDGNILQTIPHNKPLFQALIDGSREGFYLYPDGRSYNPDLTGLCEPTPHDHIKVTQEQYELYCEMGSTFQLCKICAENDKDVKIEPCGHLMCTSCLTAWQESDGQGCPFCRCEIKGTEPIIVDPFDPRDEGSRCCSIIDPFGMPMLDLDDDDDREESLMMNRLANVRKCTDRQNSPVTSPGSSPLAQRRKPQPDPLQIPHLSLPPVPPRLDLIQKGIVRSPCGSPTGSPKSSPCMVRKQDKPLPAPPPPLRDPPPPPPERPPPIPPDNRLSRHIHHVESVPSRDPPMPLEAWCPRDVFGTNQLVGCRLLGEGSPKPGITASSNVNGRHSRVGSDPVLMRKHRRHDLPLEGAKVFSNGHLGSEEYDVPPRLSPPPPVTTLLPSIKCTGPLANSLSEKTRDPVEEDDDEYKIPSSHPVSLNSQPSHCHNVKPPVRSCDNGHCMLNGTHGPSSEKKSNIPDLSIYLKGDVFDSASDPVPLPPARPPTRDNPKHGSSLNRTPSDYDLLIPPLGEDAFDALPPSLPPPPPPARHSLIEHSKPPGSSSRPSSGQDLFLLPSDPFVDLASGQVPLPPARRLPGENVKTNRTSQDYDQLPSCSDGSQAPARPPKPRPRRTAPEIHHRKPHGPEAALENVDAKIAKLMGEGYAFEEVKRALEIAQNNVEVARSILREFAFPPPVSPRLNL

[7] = Induction of anti-CD3/CD28 antibodies-stimulated human T cell activation at 4 uM assessed fold increase in IL-2 secretion measured by ELISA assay; type: functional, T cell line
[8] = Induction of anti-CD3/CD28 antibodies-stimulated human T cell activation at 1 uM assessed fold increase in CD25 expression measured by ELISA assay; type: functional, T cell line
[9] = Induction of anti-CD3/CD28 antibodies-stimulated human T cell activation at 1 uM assessed fold increase in IL-2 secretion measured by ELISA assay; type: functional, T cell line
[10] = Induction of anti-CD3/CD28 antibodies-stimulated human T cell activation at 4 uM assessed fold increase in CD25 expression measured by ELISA assay; type: functional, T cell line
[11] = Induction of anti-CD3 antibodies-stimulated human T cell activation at 1 uM assessed fold increase in CD25 expression measured by ELISA assay; type: functional, T cell line; also: reference of the scale not given here

SMILES	fold change (FC) [1]	fold change (FC) [2]	fold change (FC) [3]	fold change (FC) [4]	fold change (FC) [5]	IC50 [6] [nM]	fold change (FC) [7]	fold change (FC) [8]	fold change (FC) [9]	fold change (FC) [10]	fold change (FC) [11]
C[C@H](Cc1nncn1C)c1cccc(N2Cc3c(cc([C@H]4CCCNC4)cc3C(F)(F)F)C2=O)c1 (single isomer, unassigned)	>=0.201	>=0.201	1.31	2.51	>=1.001	< 100	>=7.5	1.51	5	1.51	0.801
Cn1cnnc1CC1(c2cccc(NC(=O)c3cc(C4CC4)nc(C(F)(F)F)n3)c2)COC1	0.151	>=0.201	1.01	2.51	>=1.001	< 100	>=7.5	1.31	>=7.5	1.51	0.801
C[C@H]1CN(C)CCN1c1cc2c(c(C(F)(F)F)c1)CN(c1cccc([C@@](C)(F)C(F)(F)c3nncn3C)c1)C2=O	0.101	>=0.201	1.01	1.01	>=1.001	< 100	>=7.5	1.01	5	1.31	>=1.001
Cn1cnnc1CC(C)(C)c1cccc(N2Cc3c(cccc3C(F)(F)F)C2=O)c1	>=0.201	>=0.201	1.01	1.01	>=1.001	< 100	>=7.5	1.01	2.51	1.51	0.801
C[C@H](Cc1nncn1C)c1cc(NC2COC2)nc(N2Cc3c(cccc3C(F)(F)F)C2=O)c1	0.051	>=0.201	1.01	1.01	>=1.001	< 100	5	1.01	1.01	1.31	0.801
Cn1cnnc1CC1(c2cccc(N3Cc4c(cc(CN5CC(C)(F)C5)cc4C(F)(F)F)C3=O)c2)COC1	>=0.201	>=0.201	1.31	>=7.5	>=1.001	< 100	>=7.5	1.51	>=7.5	1.51	>=1.001
Cn1cnnc1[C@H](F)C(C)(F)c1cccc(N2Cc3c(cccc3C(F)(F)F)C2=O)c1 (single isomer, unassigned)	<=0.05	0.101	1.01	1.01	0.801	< 100	1.01	1.01	1.01	1.01	0.601
C[C@@H](c1cc2c(c(C(F)(F)F)c1)CN(c1cccc([C@@](C)(F)C(F)(F)c3nncn3C)c1)C2=O)N1CC[C@H](F)C1	>=0.201	>=0.201	1.31	>=7.5	>=1.001	< 100	>=7.5	1.51	>=7.5	1.51	>=1.001
COc1ccc(C(=O)Nc2cccc([C@H](C)Sc3nncn3C)c2)nc1C1CC1	<=0.05	0.101	1.01	1.01	>=1.001	< 100	2.51	1.01	1.01	1.01	0.601
Cn1cnnc1CC1(c2cccc(N3Cc4c(cc(CN5C[C@@H](F)[C@@H](F)C5)cc4C(F)(F)F)C3=O)c2)COC1	0.151	>=0.201	1.31	>=7.5	>=1.001	< 100	>=7.5	1.31	>=7.5	1.51	0.801
Cn1cnnc1CC1(c2cccc(N3Cc4c(cc(CN5CC(C#N)C5)cc4C(F)(F)F)C3=O)c2)COC1	0.151	>=0.201	1.01	2.51	>=1.001	< 100	>=7.5	1.01	5	1.31	0.801
Cn1cnnc1C(F)(F)[C@](C)(F)c1cccc(N2Cc3c(cc(CN4C[C@@H](F)[C@@H](F)C4)cc3C(F)(F)F)C2=O)c1	0.151	>=0.201	1.31	2.51	>=1.001	< 100	>=7.5	1.31	5	1.51	>=1.001
